Assay results from ChEMBL document CHEMBL5385913, “First-in-Class Dual EZH2-HSP90 Inhibitor Eliciting Striking Antiglioblastoma Activity In Vitro and In Vivo” (J Med Chem, 2024).
The source made the active and inactive calls. The calls are words filed in the database; no cut-off is given here.

Columns and labels:
[1] = system: GBM; test: Downregulation of CENPF level in TMZ-resistant patient-derived human GBM cells upto 5 uM incubated for 48 to 72 hrs by Western blot analysis; format: functional, cell-based; conditions: time 48-72 hrs
[2] = system: GBM; test: Downregulation of CENPI level in TMZ-resistant patient-derived human GBM cells upto 5 uM incubated for 48 to 72 hrs by Western blot analysis; format: functional, cell-based; conditions: time 48-72 hrs
[3] = system: GBM; test: Upregulation of HSPA1A gene expression in TMZ-resistant patient-derived human GBM cells by KEGG analysis; format: functional, cell-based
[4] = Downregulation of CENPO level in TMZ-resistant patient-derived human GBM cells assessed as fold change at 2 uM by GlioVis analysis (reference value: 3.12); format: functional
[5] = system: GBM; test: Downregulation of HNRNPA3 gene expression in TMZ-resistant patient-derived human GBM cells by KEGG analysis; format: functional, cell-based
[6] = system: GBM; test: Effect on homologous recombination in TMZ-resistant patient-derived human GBM cells assessed as fold decrease in FANCM gene expression at 2 uM (reference value: 2.59); format: functional
[7] = system: GBM; test: Effect on homologous recombination in TMZ-resistant patient-derived human GBM cells assessed as fold decrease in MND1 gene expression at 2 uM (reference value: 2.95); format: functional
[8] = system: GBM; test: Upregulation of EHD1 gene expression in TMZ-resistant patient-derived human GBM cells by KEGG analysis; format: functional, cell-based
[9] = system: GBM; test: Induction of cell cycle arrest in TMZ-resistant patient-derived human GBM cells at 1 uM incubated for 24 to 72 hrs by PI staining based flow cytometry; format: functional; conditions: time 24-72 hrs
[10] = system: GBM; test: Downregulation of kinetochore-related gene expression in TMZ-resistant patient-derived human GBM cells; format: functional, cell-based
[11] = target: Histone-lysine N-methyltransferase EZH2 (Homo sapiens) (UniProt Q15910); test: Inhibition of EZH2-mediated H3K27 trimethylation in TMZ-resistant patient-derived human GBM cells upto 10 uM measured after 48 hrs by Western blot analysis; format: cell-based
[12] = system: GBM; test: Effect on homologous recombination in TMZ-resistant patient-derived human GBM cells assessed as fold decrease in PSMC3IP gene expression at 2 uM (reference value: 2.71); format: functional
[13] = system: GBM; test: Antitumor activity against TMZ-resistant patient-derived human GBM cells xenografted in NOD.CB17-Prkdcscid/NCrCrl mouse assessed as reduction in tumor growth at 20 mg/kg, ip treated twice per week; format: functional, organism-based
[14] = system: GBM; test: Upregulation of HSPH gene expression in TMZ-resistant patient-derived human GBM cells by KEGG analysis; format: functional, cell-based
[15] = system: GBM; test: Downregulation of cyclin B level in TMZ-resistant patient-derived human GBM cells upto 5 uM incubated for 48 to 72 hrs by Western blot analysis; format: functional, cell-based; conditions: time 48-72 hrs
[16] = system: GBM; test: Upregulation of ARF3 gene expression in TMZ-resistant patient-derived human GBM cells by KEGG analysis; format: functional, cell-based
[17] = system: GBM; test: Induction of ROS production in patient-derived human GBM cells assessed as decrease in SOD1 level upto 10 uM measured after 48 hrs by Western blot analysis; format: functional, cell-based
[18] = system: GBM; test: Effect on homologous recombination in TMZ-resistant patient-derived human GBM cells assessed as fold decrease in MSH5 gene expression at 2 uM (reference value: 1.52); format: functional
[19] = system: GBM; test: Effect on homologous recombination in TMZ-resistant patient-derived human GBM cells assessed as fold decrease in BLM gene expression at 2 uM (reference value: 3.55); format: functional
[20] = system: GBM; test: Induction of ROS production in patient-derived human GBM cells assessed as decrease in GPX1 level upto 10 uM measured after 48 hrs by Western blot analysis; format: functional, cell-based
[21] = Downregulation of CENPF level in TMZ-resistant patient-derived human GBM cells assessed as fold change at 2 uM by GlioVis analysis (reference value: 6.6); format: functional
[22] = target: Histone-lysine N-methyltransferase EZH2 (Homo sapiens) (UniProt Q15910); test: Inhibition of EZH2 in patient-derived human GBM cells upto 10 uM measured after 48 hrs by Western blot analysis; format: cell-based
[23] = system: GBM; test: Downregulation of RPL35 gene expression in TMZ-resistant patient-derived human GBM cells by KEGG analysis; format: functional, cell-based
[24] = system: GBM; test: Downregulation of M phase-related gene expression in TMZ-resistant patient-derived human GBM cells; format: functional, cell-based
[25] = system: GBM; test: Upregulation of HSP90AA1 gene expression in TMZ-resistant patient-derived human GBM cells by KEGG analysis; format: functional, cell-based
[26] = system: GBM; test: Suppression of cell division in TMZ-resistant patient-derived human GBM cells by GSEA analysis; format: functional, cell-based
[27] = Downregulation of CENPP level in TMZ-resistant patient-derived human GBM cells assessed as fold change at 2 uM by GlioVis analysis (reference value: 2.18); format: functional
[28] = system: GBM; test: Downregulation of RPL26 gene expression in TMZ-resistant patient-derived human GBM cells by KEGG analysis; format: functional, cell-based
[29] = Downregulation of CENPA level in TMZ-resistant patient-derived human GBM cells assessed as fold change at 2 uM by GlioVis analysis (reference value: 3.64); format: functional
[30] = Effect on processing DNA double-strand break in TMZ-resistant patient-derived human GBM cells assessed as fold decrease in BLM gene expression at 2 uM (reference value: 3.55); format: functional
[31] = system: GBM; test: Effect on homologous recombination in TMZ-resistant patient-derived human GBM cells assessed as fold decrease in EME1 gene expression at 2 uM (reference value: 2.94); format: functional
[32] = system: GBM; test: Downregulation of PCBP1 gene expression in TMZ-resistant patient-derived human GBM cells by KEGG analysis; format: functional, cell-based
[33] = system: GBM; test: Inhibition of cell proliferation in TMZ-resistant patient-derived human GBM cells at 2 uM incubated for 48 hrs; format: functional, cell-based
[34] = system: GBM; test: Induction of ROS production in TMZ-resistant patient-derived human GBM cells measured after 48 hrs by DHR staining based flow cytometry; format: functional, cell-based
[35] = system: GBM; test: Downregulation of spindle-related gene expression in TMZ-resistant patient-derived human GBM cells; format: functional, cell-based
[36] = Downregulation of CENPK level in TMZ-resistant patient-derived human GBM cells assessed as fold change at 2 uM by GlioVis analysis (reference value: 3.71); format: functional
[37] = system: GBM; test: Induction of ROS production in patient-derived human GBM cells measured after 48 hrs by DHR staining based flow cytometry; format: functional, cell-based
[38] = Downregulation of CENPO level in TMZ-resistant patient-derived human GBM cells assessed as fold change at 2 uM by GlioVis analysis (reference value: 2.67); format: functional
[39] = Downregulation of OIP5 level in TMZ-resistant patient-derived human GBM cells assessed as fold change at 2 uM by GlioVis analysis (reference value: 2.31); format: functional

Sequence of Histone-lysine N-methyltransferase EZH2 (Homo sapiens) (Q15910 whole entry, looked up): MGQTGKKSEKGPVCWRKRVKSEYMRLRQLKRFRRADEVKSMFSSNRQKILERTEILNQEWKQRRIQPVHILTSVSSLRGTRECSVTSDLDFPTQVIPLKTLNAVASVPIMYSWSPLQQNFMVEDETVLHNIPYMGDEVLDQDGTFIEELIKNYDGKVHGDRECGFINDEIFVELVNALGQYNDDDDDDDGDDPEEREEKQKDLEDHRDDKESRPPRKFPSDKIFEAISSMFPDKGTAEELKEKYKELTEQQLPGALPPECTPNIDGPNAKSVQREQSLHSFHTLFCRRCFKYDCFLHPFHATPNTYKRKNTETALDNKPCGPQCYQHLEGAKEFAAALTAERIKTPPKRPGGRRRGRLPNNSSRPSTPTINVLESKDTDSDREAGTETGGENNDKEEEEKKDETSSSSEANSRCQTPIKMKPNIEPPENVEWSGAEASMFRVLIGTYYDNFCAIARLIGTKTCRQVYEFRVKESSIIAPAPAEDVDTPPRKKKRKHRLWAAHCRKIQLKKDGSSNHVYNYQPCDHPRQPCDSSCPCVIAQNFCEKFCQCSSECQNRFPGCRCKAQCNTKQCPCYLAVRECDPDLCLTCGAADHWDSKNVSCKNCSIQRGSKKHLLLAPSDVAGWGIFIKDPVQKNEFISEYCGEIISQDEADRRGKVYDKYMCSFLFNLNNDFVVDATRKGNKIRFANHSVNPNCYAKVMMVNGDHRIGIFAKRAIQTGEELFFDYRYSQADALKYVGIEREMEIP

With `CCN(c1cc(-c2cccc(N(C)C(=O)c3cc(C(C)C)c(O)cc3O)c2)cc(C(=O)NCc2c(C)cc(C)[nH]c2=O)c1C)C1CCOCC1` the Activity [1] was “Active”, the Activity [2] was “Active” and the Activity [3] was “Active”. For the same compound, the “fold change (FC)” value [4] was 1.84, the Activity [5] was “Active” and the “fold change (FC)” value [6] was 1.77. For the same compound, the “fold change (FC)” value [7] was 0.36, the Activity [8] was “Active” and the Activity [9] was “Active”. The Activity [10] was “Active”, the inhibition [11] was “Active” and the “fold change (FC)” value [12] was 1.17. The Activity [13] was “Active”, the Activity [14] was “Active” and the Activity [15] was “Active”. For the same compound, the Activity [16] was “Active”, the Activity [17] was “Active” and the “fold change (FC)” value [18] was 0.44. For the same compound, the “fold change (FC)” value [19] was 0.72, the Activity [20] was “Active” and the “fold change (FC)” value [21] was 3.46. The inhibition [22] was “Active”, the Activity [23] was “Active” and the Activity [24] was “Active”. For the same compound, the Activity [25] was “Active”, the Activity [26] was “Active” and the “fold change (FC)” value [27] was 1.27. For the same compound, the Activity [28] was “Active”, the “fold change (FC)” value [29] was 0.81 and the “fold change (FC)” value [30] was 0.72. The “fold change (FC)” value [31] was 0.75, the Activity [32] was “Active” and the inhibition [33] was “Active”. The Activity [34] was “Active”, the Activity [35] was “Active” and the “fold change (FC)” value [36] was 1.33. For the same compound, the Activity [37] was “Active”, the “fold change (FC)” value [38] was 1.53 and the “fold change (FC)” value [39] was 0.66.
